Source: patent publication US20170305894A1, “PPAR AGONISTS, COMPOUNDS, PHARMACEUTICAL COMPOSITIONS, AND METHODS OF USE THEREOF” (priority 2014, published 2017)

Tests used:
FGF1a promoter = test: Luciferase reporter assay of FGF1a promoter co-transfected with PPARδ; type: cell-based; conditions: with or without the ligand
Description: FIGS. 3A-3G illustrate that PPARδ regulates FGF1a to promote micro-vascularization. *P<0.05; **P<0.01. All error bars are SEM. FIG. 3A provides immunofluorescence staining for CD31 on transverse sections of uninjured TA from WT and TG animals. FIG. 3B provides quantification of CD31 positive capillary number (n=4). FIG. 3C illustrates the FGF1a mRNA level in TA of WT and TG by QPCR (n=5). FIG. 3D provides a Western blot for FGF1. FIG. 3E provides immunofluorescence staining for CD31 positive capillaries on transverse sections of TA, 5 days after the injury (n=3). FIG. 3F provides quantification for CD31 positive capillaries on transverse sections of TA, 5 days after the injury (n=3). FIG. 3G provides luciferase reporter assays of FGF1a promoter co-transfected with PPARδ with or without the ligand, GW501516.
Increased vasculature is one of the hallmarks of oxidative myofibers, which facilitates introduction of immune cells and also supports increased number of satellite cells. TG animals show increased expression of FGF1 in TA muscle (FIG. 3D). Upon injury, TG animals maintain high expression of FGF1 expression (FIG. 3D). […] Furthermore, after the injury, TG animals show increased expression of CD31, which is indicative of increased vascularity (FIGS. 3E-F). […] Therefore, increased vascularity may contribute to the accelerated regenerative process observed in VP16-PPARδ animals.

[1] = tested on: C57BL6J mice, thermal injury to the TA; test: Acute pharmacological activation of PPARδ in freeze burn (thermal) injury of the TA muscle; type: in vivo
Experimental: TA muscles were injured according to previously published methods with a few modifications (Brack et al., Science 317(5839):807-810 (2007)). A stainless steel 1 g weight (Mettler-Toledo) equilibrated to the temperature of dry ice was placed directly on the exposed TA for 10 seconds. Following the thermal injury, incision was closed using VetBond (3M). All injury procedures were performed on the left leg, and the right leg was used as control.
(Hamer et al., J Anat 200(Pt 1):69-79 (2002)). Sterile 1% w/v Evans Blue dye in PBS was intraperitoneally injected at 1% volume relative to the body mass of an animal. Seven hours after the injection, injured TA muscles were harvested and snap-frozen by isopentane quenching in liquid nitrogen. Frozen sections were cut in 10 μm thickness, fixed in ice-cold acetone, dipped in xylene and mounted with DPX. Proportion of the stained area over the total area was measured using ImageJ software.
50 mg/kg body weight of BrdU (Sigma) was injected intraperitoneally as solution of 10 mg/mL BrdU in saline. TA muscles were harvested at 7 days after injury and processed for paraffin sections as described above. BrdU incorporation was visualized using the BrdU Labeling and Detection Kit I (Roche) and BrdU+ nuclei were counted and represented as a proportion of total nuclei in a field.
Whole or partial tissues were homogenized by Polytron probe homogenizer in Trizol reagent (Invitrogen). Total RNA was extracted from the homogenates according to the manufacturer's protocol. One microgram of DNase-treated total RNA was reverse transcribed using Superscript II Reverse Transcriptase (Invitrogen) according to the manufacturer's instructions. cDNAs were diluted 1/40 with ddH2O and used as templates in RT-QPCR reactions with SYBRGreenER qPCR SuperMix detection system (Invitrogen). Samples were prepared in technical triplicates and relative mRNA levels were calculated by using the standard curve methodology and normalized against GAPDH mRNA levels in the same samples.

Question: `Cc1cc(SCc2sc(-c3ccc(C(F)(F)F)cc3)nc2C)ccc1OCC(=O)O` [GW501516] was tested. Which “FGF1a promoter luciferase reporter activity” value (FGF1a promoter) did it give?
Answer: Its value is “induction of FGF1a”.

Question: What about the “initial inflammatory responses (inflammatory marker genes)” value ([1]; 12 hours after the injury, with or without ligand) of the same molecule?
Answer: Its value is “similarly generated”.

Question: What about the “expressions of inflammatory marker genes by QPCR” value ([1]; 3 days after the injury) of the same molecule?
Answer: Its value is “significantly reduced”.

Question: What about the “reduction in the proportion of stained area” value ([1]; 5 days after the injury, versus vehicle, orally 5 mg/kg) of the same molecule?
Answer: Its value is 34.7%.

Question: What about the “expression of PPARδ target genes (PDK4, CPT1b, and catalase) in TA by QPCR” value ([1]; 9 day treatment, orally 5 mg/kg) of the same molecule?
Answer: The value was “Up-regulation”.

Question: And the “myoblast proliferation (BrdU positive nuclei)” value ([1]; BrdU injection at 48 hours after the injury)?
Answer: Its value is “promoted myoblast proliferation”.

Question: What about the “increase in the number of quiescent satellite cells” value ([1]; after 9 days or 4 weeks of ligand treatment) of the same molecule?
Answer: The value was “not observed”.

Question: What about the “Evans Blue dye uptake, proportion of muscle cross sectional area (CSA) stained” value ([1]; orally 5 mg/kg for 4 days prior to and 5 days after injury, 5 days after the injury, vehicle 7.6%) of the same molecule?
Answer: The value was 4.9%.
